# From the supplement of paper PMC10307832
# Experiments:
# Test in all cases: relative viability (nuclei count vs DMSO), 5 days (fraction); higher = more cells survive
# Motesanib = compound: CC1(C)CNc2cc(NC(=O)c3cccnc3NCc3ccncc3)ccc21 [Motesanib]
# In short: (§1)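 Only plates meeting two conditions passed: control CV below 25% and at least one doubling. Lung cancer cell lines, kept overnight at 37 °C in 1536-well plates, were pinned with five library-drug doses (not always all listed) √10 apart on vehicle-anchored plates and grown 5 days without medium change. A one-step fix, permeabilisation and Hoechst stain preceded 4× imaging and MetaXpress nuclear counting. Viability equals treated-well nuclei divided by vehicle-well nuclei, as the median over plates.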
# [1] = compound: C[C@@]1(C(=O)Nc2ccc(F)nc2)CCCN1c1nc(Nc2cc(C3CC3)n[nH]2)c2cccn2n1
# In short: as §1
# Motesanib + OSI-027 = compound: CC1(C)CNc2cc(NC(=O)c3cccnc3NCc3ccncc3)ccc21 [Motesanib] + COc1cccc2cc(-c3nc([C@H]4CC[C@H](C(=O)O)CC4)n4ncnc(N)c34)[nH]c12 [OSI-027] (partner 0.5 µM)
# In short: (§2)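 Lung cancer cell lines, seeded in 1536-well plates, were treated the following day by pin tool with a single drug or with five library-drug doses (not always all listed) in √10 steps on top of a fixed anchor-drug dose. Cells were fixed and nuclei stained in one step after 5 days, and nuclei were counted. Relative viability is the nuclei count for treated wells divided by that for vehicle wells, reported as medians of duplicate plates.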
# [2] = compound: C[C@@]1(C(=O)Nc2ccc(F)nc2)CCCN1c1nc(Nc2cc(C3CC3)n[nH]2)c2cccn2n1 + Nc1nc2[nH]cc(CCc3ccc(C(=O)N[C@@H](CCC(=O)O)C(=O)O)cc3)c2c(=O)[nH]1 [Pemetrexed] (partner 0.2 µM)
# In short: as §2
Cell Line,relative viability (Motesanib; 0.01 µM),relative viability (Motesanib; 0.03162 µM),relative viability (Motesanib; 0.1 µM),relative viability (Motesanib; 0.3162 µM),relative viability (Motesanib; 1 µM),relative viability ([1]; 0.04 µM),relative viability ([1]; 0.1265 µM),relative viability ([1]; 0.4 µM),relative viability ([1]; 1.265 µM),relative viability (Motesanib + OSI-027; first compound 0.01 µM),relative viability (Motesanib + OSI-027; first compound 0.03162 µM),relative viability (Motesanib + OSI-027; first compound 0.1 µM),relative viability (Motesanib + OSI-027; first compound 0.3162 µM),relative viability (Motesanib + OSI-027; first compound 1 µM),relative viability ([2]; first compound 0.04 µM),relative viability ([2]; first compound 0.1265 µM),relative viability ([2]; first compound 0.4 µM),relative viability ([2]; first compound 1.265 µM)
NCI-H520,0.931,1.03,0.971,1.05,0.906,0.977,0.915,0.953,0.99,0.29,0.226,0.231,0.24,0.253,0.661,0.529,0.581,0.615
NCI-H522,0.939,1.01,1.06,1.06,1.07,0.925,0.836,0.754,0.878,0.741,0.585,0.417,0.659,0.732,0.832,1.25,0.706,0.933
NCI-H596,1.2,0.921,0.928,0.908,0.964,1.02,0.846,0.902,0.939,0.913,0.772,0.732,0.6,0.75,0.494,0.497,0.431,0.487
NCI-H647,0.827,1,0.93,1.06,0.988,1.05,0.869,0.848,0.86,0.848,0.528,0.578,0.717,0.557,0.174,0.163,0.174,0.123
NCI-H650,0.976,1.04,0.992,1.07,0.907,0.841,0.649,0.784,0.585,0.529,–,0.539,0.574,0.537,0.837,0.706,0.745,0.692
NCI-H661,0.972,1.02,0.985,1.04,0.964,1.04,1.04,1.01,0.875,0.73,0.741,0.848,0.749,0.576,0.918,0.909,0.796,0.899
NCI-H838,1.04,0.962,0.985,1.02,0.932,0.942,0.76,0.693,0.736,0.448,0.313,0.394,0.438,0.415,0.234,0.233,0.216,0.215
NCI-H1355,1.03,1.02,0.978,1.04,1.01,0.96,0.794,0.797,0.818,0.411,0.424,0.39,0.414,0.431,1.01,0.957,0.826,0.953
NCI-H1395,0.814,0.84,0.95,0.866,0.924,0.916,0.825,0.922,0.755,0.576,0.579,0.658,0.636,0.564,0.89,0.411,0.879,0.868
NCI-H1437,0.964,0.958,0.998,1,0.957,1.04,0.918,0.679,0.714,0.872,0.899,0.903,0.803,0.856,0.246,0.242,0.242,0.284
NCI-H1563,1.04,0.973,1.09,0.953,0.994,1.04,0.918,0.805,0.934,0.754,0.799,0.797,0.752,0.704,0.92,0.708,0.73,0.662
NCI-H1648,0.744,0.658,0.71,1.1,0.556,0.837,0.57,0.499,0.636,0.275,0.283,0.268,0.275,0.295,0.661,0.606,0.624,0.637
NCI-H1650,1.03,0.792,1.06,0.947,0.927,0.894,0.843,0.798,0.699,0.747,0.688,0.725,0.562,0.586,0.38,0.29,0.334,0.319
NCI-H1651,1.02,0.912,0.946,0.962,0.947,0.956,0.883,0.82,0.923,0.848,0.663,0.628,0.652,0.615,0.62,0.508,0.517,0.447
NCI-H1666,1.04,0.965,0.976,0.99,1.08,0.932,0.83,0.773,0.753,0.784,0.816,0.894,0.937,0.859,0.797,0.735,0.714,0.683
NCI-H1734,0.968,1.01,0.948,1.07,1.01,0.855,0.721,0.651,0.615,0.659,0.602,–,0.58,0.527,0.418,0.338,0.404,0.381
NCI-H1755,1.01,0.989,1.03,1.07,1.03,1.02,0.875,0.92,0.958,0.661,0.682,0.746,0.826,0.652,0.444,0.408,0.39,0.377
NCI-H1792,0.742,0.805,0.908,0.918,1.12,0.602,0.423,0.383,0.295,–,0.65,0.723,0.824,0.651,0.641,0.333,0.303,0.27

Cell Line,relative viability (Motesanib; 0.01 µM),relative viability (Motesanib; 0.03162 µM),relative viability (Motesanib; 0.1 µM),relative viability (Motesanib; 0.3162 µM),relative viability (Motesanib; 1 µM),relative viability ([1]; 0.04 µM),relative viability ([1]; 0.1265 µM),relative viability ([1]; 0.4 µM),relative viability ([1]; 1.265 µM),relative viability (Motesanib + OSI-027; first compound 0.01 µM),relative viability (Motesanib + OSI-027; first compound 0.03162 µM),relative viability (Motesanib + OSI-027; first compound 0.1 µM),relative viability (Motesanib + OSI-027; first compound 0.3162 µM),relative viability (Motesanib + OSI-027; first compound 1 µM),relative viability ([2]; first compound 0.04 µM),relative viability ([2]; first compound 0.1265 µM),relative viability ([2]; first compound 0.4 µM),relative viability ([2]; first compound 1.265 µM)
NCI-H1793,0.865,1.02,0.867,0.963,0.967,0.974,0.738,0.67,1.04,0.26,0.272,0.261,0.284,0.302,0.644,0.825,0.634,0.508
NCI-H1915,0.978,0.988,0.908,1.05,1.04,1,1.06,0.982,0.982,0.575,0.72,0.625,0.631,0.632,0.52,0.46,0.48,0.529
NCI-H1944,0.946,0.961,0.914,1.05,0.989,0.768,0.75,0.63,0.663,0.37,0.424,0.438,0.475,0.427,0.605,0.554,0.497,0.544
NCI-H1975,0.876,0.914,0.996,0.995,0.98,0.943,0.981,0.649,0.754,0.66,0.702,0.747,0.677,0.669,0.302,0.298,0.274,0.268
NCI-H1993,0.993,0.941,0.977,0.963,1.06,0.732,0.696,0.649,0.686,0.526,0.554,0.552,0.543,0.557,0.496,0.488,0.462,0.474
NCI-H2009,1.02,0.993,1.08,1.02,0.964,1.06,1.03,0.936,1,0.646,0.689,0.713,0.593,0.623,1.07,1.01,1.01,1.03
NCI-H2023,1.02,0.906,0.955,1.01,0.979,0.881,0.613,0.547,0.394,0.453,0.374,0.373,0.404,0.429,0.252,0.137,0.152,0.0911
NCI-H2085,1.02,0.993,0.981,1.06,1.01,1.07,0.952,0.942,0.955,0.812,0.892,0.753,0.67,0.691,0.959,0.844,0.887,0.877
NCI-H2087,1.14,0.887,1.06,1.25,1.37,0.954,0.815,0.868,0.819,0.427,0.544,0.585,0.705,0.573,0.669,0.696,0.639,0.668
NCI-H2126,1.03,1.04,1.01,1.04,1.07,0.882,0.614,0.553,0.599,0.815,0.737,0.674,0.774,0.781,0.622,0.463,0.379,0.465
NCI-H2170,0.928,0.948,0.939,1.01,1.02,0.945,0.994,0.958,0.976,0.686,0.687,0.748,0.718,0.775,0.278,0.236,0.267,0.251
NCI-H2228,1.1,1.03,0.971,1.11,1.06,0.857,0.781,0.743,0.652,0.572,0.455,0.489,0.689,0.572,0.388,0.355,0.317,0.286
NCI-H2342,0.902,0.976,1.05,0.928,1.06,1.16,0.863,0.805,0.7,0.555,0.654,0.672,0.505,0.637,0.819,0.725,0.579,0.664
NCI-H2347,1.01,1.04,1.15,0.983,1.04,1.03,0.922,0.908,0.967,0.411,0.364,0.357,0.51,0.493,0.437,0.415,0.436,0.416
NCI-H2405,0.676,0.853,0.975,1.06,1.01,0.917,0.816,0.739,0.671,–,0.59,0.683,0.663,0.719,0.8,0.905,0.819,0.614
NCI-H3122,0.98,1.02,1.04,1.05,1.05,0.979,0.986,0.99,0.962,0.836,0.962,0.933,1.08,1.23,0.202,0.175,0.178,0.18
PC-3 [JPC-3],1.05,1.03,1.05,1.03,1.05,1.04,0.937,1.02,1.02,0.8,0.737,0.784,0.759,0.86,1.19,1.03,1.04,0.839
